The text below walks through data of ChEMBL document CHEMBL6074663, “Design, synthesis and evaluation of 3-(2-(substituted benzyloxy)benzylidene) pyrrolidine-2,5-dione derivatives for novel ATX inhibitor” (Bioorg Med Chem Lett, 2024).

The target of assay [1] is T1, Autotaxin (Homo sapiens, UniProt Q13822). The assay can be described thus: Inhibition of ATX (unknown origin) using FS-3 as substrate by measuring fold change preincubated with compound for 10 mins followed by substrate addition measured for 30 mins by fluorometric kinetic assay compared to 3-(2-(benzyloxy)benzylidene)-1-(3-chlorophenyl)pyrrolidine-2,5-dione. Conditions: time 40.0 min.

Assay [2] concerns the target T1, Autotaxin. Description: Inhibition of ATX (unknown origin) using FS-3 as substrate preincubated with compound for 10 mins followed by substrate addition measured for 30 mins by fluorometric kinetic assay.
In the next assay the test system is LX-2. Description: Inhibition of cell migration in TGF-beta induced human LX2 cells by measuring cell uncovered area at 0.3 to 3 uM incubated for 24 hrs by wound healing assay. Format: functional. Conditions: dose 0.3-3 µM.
Assay [3] is described as follows: Inhibition of collagen formation in oleic and palmitic acid induced human Huh-7 cells cocultured with human LX2 cells at 1 to 10 uM incubated for […] by Sirius Red staining based analysis. Format: functional. Conditions: dose 1-10 µM.
A further assay relates to Huh-7. Description: Anti-steatosis activity against oleic acid induced human Huh-7 cells assessed as reduction of lipid accumulation at 1 to 10 uM incubated for 24 hrs by […] based fluorescence microscopic analysis. Also on record: scale not given: the % may be the effect or the level left. Format: functional. Conditions: dose 1-10 µM.

In the case of `N#Cc1ccc(COc2ccccc2/C=C2/CC(=O)N(c3cccc(Cl)c3)C2=O)cc1`, on Autotaxin [1], the fold change (FC) was 3.5. In addition, the IC50 (as a rule, the midpoint of a concentration-inhibition curve) on Autotaxin [2] was found to be 280 nM.

Take `O=C1C/C(=C/c2ccccc2OCc2ccccc2)C(=O)N1c1cccc(Cl)c1`: the IC50 on Autotaxin [2] was 980 nM.

For `CN(C)C(=O)c1ccc(COc2ccccc2/C=C2/CC(=O)N(c3cccc(Cl)c3)C2=O)cc1`, the IC50 at Autotaxin [2] was over 10000 nM.

For the molecule `O=C(Oc1cccc2ccccc12)c1ccc(COc2ccccc2/C=C2/CC(=O)N(c3cccc(Cl)c3)C2=O)cc1`, the IC50 on Autotaxin [2] is over 10000 nM.

In the case of `CCCOC(=O)c1ccc(COc2ccccc2/C=C2/CC(=O)N(c3cccc(Cl)c3)C2=O)cc1`, the IC50 at Autotaxin [2] is 320 nM.

As for `NC(=O)c1ccc(COc2ccccc2/C=C2/CC(=O)N(c3cccc(Cl)c3)C2=O)cc1`, the IC50 at Autotaxin [2] came to 240 nM.

With `O=C(Oc1ccccc1)c1ccc(COc2ccccc2/C=C2/CC(=O)N(c3cccc(Cl)c3)C2=O)cc1`, the IC50 on Autotaxin [2] was found to be 2040 nM.

For `O=C(O)c1ccc(COc2ccccc2/C=C2/CC(=O)N(c3cccc(Cl)c3)C2=O)cc1`, on Autotaxin [2], the IC50 was determined as 9390 nM.

For `COC(=O)c1ccc(COc2ccccc2/C=C2\CC(=O)N(c3cccc(Cl)c3)C2=O)cc1`, the “inhibition (INH)” value is reported as 23% with LX-2 and 35% in assay [3]. For the same molecule, on Autotaxin [2], the IC50 is 130 nM. In the assay with Huh-7, the Activity was 42%.

With `CC(C)OC(=O)c1ccc(COc2ccccc2/C=C2/CC(=O)N(c3cccc(Cl)c3)C2=O)cc1`, the IC50 at Autotaxin [2] came out at 270 nM.
